In US20070275086A1, “Use of Increased Molecular-Weight Hirudin as an Anticoagulant in Extracorporeal Kidney Replace Therapy” (Max-Planck-Gesellschaft Zur Forderung Der Wissenschaften E.V, priority 1999, published 2007):
Values joined by “and” are separate entries in the source; they are usually repeats but may differ in a detail not shown here. Equal values may be shown once.

How the values were obtained:
blood platelets = details: human, in vivo
Source text: Patient one. […] Patient was anticoagulated with 6900 IU heparin.
The objective and subjective findings which point towards an HIT II condition were no longer evident after the changeover to anticoagulation with PEG-hirudin. The blood platelet counts, which had constantly shown values above 400/nl during the last dialyses under heparin, fell during the PEG-hirudin haemodialysis to the range from 320 to 350/nl; a trend towards continued normalisation was clearly demonstrable.
The patient was then transferred to PEG-hirudin.

HIT II-positive patients = details: human, in vivo
Protocol: Patient was anticoagulated with 6900 IU heparin. […] The patient complained during dialysis and also in the dialysis-free intervals of problems relating to blood pressure and in some cases mild states of confusion. […] The average number of blood platelets before and after haemodialysis was between 350 and 400/nl.
The patient was transferred to PEG-hirudin according to the following dosage scheme: first haemodialysis: 0.1 mg/kg as a bolus, second to 10th haemodialysis: 0.05 mg/kg PEG hirudin, 11th haemodialysis and beyond: 0.025 mg/kg. […] The blood level of PEG hirudin fluctuated between 0.4 μg/ml before the start of haemodialysis and 1.0 μg/ml after dialysis. The filling volumes with the Type GFS plus 11 dialysers (GAMBRO) were as follows: under heparin application—the mean value for the last three heparin-anticoagulated dialyses was 87 ml; the filling volume during PEG-hirudin treatment for HD 5-HD 6 was 96 ml.
Creatinine clearance was less than 12 ml/min. The anticoagulant used during haemodialysis was un-fractionated heparin. Additionally, the dialysers (H120, Braun-Melsungen) were “primed” before the start of haemodialysis with 500 units of heparin. The patient received 3000 units of heparin as a bolus and 3000 units of heparin as an infusion during the 3.5 hour haemodialysis. […]

[1] = Dialyser filling volume and clotting in the extracorporeal circuit at end of haemodialysis; format: in vivo, human
Source text: Following this, the patient was transferred to PEG-hirudin.

Protocol for HIT II antibodies: Patient. […] Patient was anticoagulated with 6900 IU heparin. […] The patient complained during dialysis and also in the dialysis-free intervals of problems relating to blood pressure and in some cases mild states of confusion. […] The average number of blood platelets before and after haemodialysis was between 350 and 400/nl.
Creatinine clearance was less than 12 ml/min. The anticoagulant used during haemodialysis was un-fractionated heparin. Additionally, the dialysers (H120, Braun-Melsungen) were “primed” before the start of haemodialysis with 500 units of heparin. The patient received 3000 units of heparin as a bolus and 3000 units of heparin as an infusion during the 3.5 hour haemodialysis. […] The patient complained of tingling in the extremities, a feeling of restlessness and intermittent state of confusion. Between the dialysis sessions, the patient complained of headaches, malaise and loss of appetite. They stated that the people around them complained that they were irritable and seemed under stress.
This patient had been dialysed for 5 months initially with un-fractionated heparin, then with fractionated heparin (Enoxaparin). Enoxaparin was applied in a dose of 20 mg directly before the start of the dialysis. After an incorrect dialysis (rise in pressure before the dialyser) over the dialysis period of 4.5 h, an additional 10 mg Enoxaparin were applied via an indwelling infusion pump placed before the dialyser (F 50 S, Fresenius). The patient indicated severe shortness of breath, a decline in circulation and blood pressure to base values of 80/30 mmHg shortly after the start of haemodialysis.

| blood platelets during haemodialysis, reduced down to (blood platelets) | tests for HIT II antibodies (HIPA test and platelet-factor-4 ELISA) (HIT II antibodies) | average number of blood platelets before and after haemodialysis (blood platelets) | blood platelet counts (blood platelets) | HIT II-specific diagnosis (HIPA-test) (HIT II antibodies) | tests for HIT-positive antibodies (HIPA and ELISA) (HIT II antibodies) | Substance | blood pressure base values shortly after the start of haemodialysis (HIT II-positive patients) | filling volume of dialyser ([1]; patient one, Type GFS plus 11 dialysers (GAMBRO), specified 100 ml, heparin: mean of last three dialyses, PEG-hirudin: HD 5-HD 6) | filling volume at the end of haemodialysis ([1]; patient two, H120 dialysers, heparin: last two haemodialyses, PEG-hirudin: after the 4th haemodialysis) | fall in blood pressure at the start of haemodialysis (HIT II-positive patients) |
| --- | --- | --- | --- | --- | --- | --- | --- | --- | --- | --- |
| 100 nL⁻¹ | positive | – | – | – | – | Enoxaparin | 80/30 | – | – | – |
| – | – | 350 to 400 nL⁻¹ | above 400 /nl | positive result | strongly positive | heparin | – | 87 mL | 71 mL and 73 mL | 35 mmHg |
